What was measured:
[1] = reported; cited from earlier work
[2] = reported; cited from earlier work; remark: listed apart in the source
recombinant human PDE3A = recombinant human PDE3A (Homo sapiens (Human), UniProt Q14432); assay: In vitro inhibitory activity against PDE 3A enzyme (fluorescence polarization); format: biochemical; details: 1 μM cAMP
Experimental: (§1) Experimental objective: to determine the AMP/GMP expression based on fluorescence polarization, i.e., to trace binding of AMP/GMP to antibody so as to indicate enzyme activity.
Experimental buffer solution: 10 mM Tris-HCl (pH 7.5), 5 mM MgCl2, 0.01% Brij 35, 1 mM Dithiothreitol (DTT), and 1% DMSO.
Enzyme: recombinant human PDE3A (Gene accession number: NM_000921; amino acid 669-end) was expressed by baculovirus in Sf9 insect cells using an N-terminal GST tag, with molecularweight being 84 kDa.
(§2) Enzyme substrate: 1 μM cAMP
(§3) Detection: Transcreener® AMP2/GMP2 antibody and AMP2/GMP2 AlexaFluor633 tracer.
(§4) • 1. The recombinant human PDE3A enzyme and enzyme substrate (1 μM cAMP) were each dissolved in newly-prepared experimental buffer solution; • 2. The PDE3A enzyme buffer solution was transferred into reaction wells; • 3. The compound which was dissolved in 100% DMSO was added to the reaction wells containing PDE3A enzyme buffer solution by acoustic technique (echo 550; millilambda range) and the mixture was incubated for 10 minutes at room temperature; • 4. The enzyme substrate buffer solution was added to the above reaction wells to initiate reaction; • 5. The resulting mixture was incubated at room temperature for 1 hour; • 6. The detection mixture (Transcreener® AMP2/GMP2 antibody and AMP2/GMP2 AlexaFluor633 tracer) was added to stop the reaction, and the resulting mixture was incubated for 90 minutes while slowly mixing. The measurement range of fluorescence polarization was Ex/Em=620/688.
(§5) Data analysis: the fluorescence polarization signal was converted to nM based on AMP/GMP standard curve and the percentage enzyme activity relative to DMSO control calculated by Excel. GraphPad Prism was used for curve fitting (drawing medical icon).

recombinant human PDE4B = recombinant human PDE4B (Homo sapiens (Human), UniProt Q07343); assay: In vitro inhibitory activity against PDE 4B enzyme (fluorescence polarization); format: biochemical; details: 1 μM cAMP
Experimental: as §1
Experimental buffer solution: 10 mM Tris-HCl (pH 7.5), 5 mM MgCl2, 0.01% Brij 35, 1 mM DTT, and 1% DMSO.
Enzyme: recombinant human PDE4B (Gene accession number: NM_002600; amino acid 305-end) was expressed by baculovirus in Sf9 insect cells using an N-terminal GST tag, with molecularweight being 78 kDa.
as §2, §3
as §4, with “PDE4B” for “PDE3A”, “newly prepared” for “newly-prepared”
as §5

[3] = Pharmacokinetic experiment in beagle dogs; format: in vivo
Experimental: In this study, male beagle dogs were selected as test animals, and liquid chromatography-tandem mass spectrometry (LC-MS/MS) method was used for quantitatively measuring the drug concentration in plasma of beagle dogs at different time points after intravenous injection or oral administration of compound WX036 so as to evaluate the pharmacokinetic characteristics of the compound WX036 in beagle dogs.
The clear solution of compound WX036 was injected into two 10-12 kg beagle dogs via the cephalic vein or saphenous vein, and the clear solution of test compound was administered intragastrically to two 10-12 kg beagle dogs (overnight fasted). The animals were all subjected to approximately 500 μL of blood collection each time from peripheral veins at 0.0333, 0.0833, 0.25, 0.5, 1, 2, 4, 6, 8, and 24 hours post-dose, and the blood was transferred into commercial centrifuge tubes containing 0.85-1.15 mg of K2 EDTA*2H2O anticoagulant, and plasma was taken by centrifugation at 3000 g for 10 minutes at 4° C. The plasma concentration was measured by LC-MS/MS method, and the relevant pharmacokinetic parameters were calculated by WinNonlin™ Version 6.3 (Pharsight, Mountain View, CA) pharmacokinetic software using non-compartmental model linear logarithmic trapezoid method.

recombinant human PDE3A, sequence (Q14432 669-1141 limits assumed): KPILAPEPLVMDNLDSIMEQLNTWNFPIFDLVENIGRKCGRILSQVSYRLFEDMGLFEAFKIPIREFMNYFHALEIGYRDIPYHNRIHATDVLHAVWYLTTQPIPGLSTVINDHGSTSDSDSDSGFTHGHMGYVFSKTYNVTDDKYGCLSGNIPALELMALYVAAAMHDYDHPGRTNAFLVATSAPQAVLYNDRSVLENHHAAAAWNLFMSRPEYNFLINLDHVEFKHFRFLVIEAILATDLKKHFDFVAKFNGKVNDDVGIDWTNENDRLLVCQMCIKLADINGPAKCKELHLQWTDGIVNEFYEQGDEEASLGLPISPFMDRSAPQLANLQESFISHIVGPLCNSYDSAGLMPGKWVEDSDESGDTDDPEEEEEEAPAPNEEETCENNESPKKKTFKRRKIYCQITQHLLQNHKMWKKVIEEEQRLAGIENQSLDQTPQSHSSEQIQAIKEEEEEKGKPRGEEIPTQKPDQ
recombinant human PDE4B, sequence (Q07343 305-736 limits assumed): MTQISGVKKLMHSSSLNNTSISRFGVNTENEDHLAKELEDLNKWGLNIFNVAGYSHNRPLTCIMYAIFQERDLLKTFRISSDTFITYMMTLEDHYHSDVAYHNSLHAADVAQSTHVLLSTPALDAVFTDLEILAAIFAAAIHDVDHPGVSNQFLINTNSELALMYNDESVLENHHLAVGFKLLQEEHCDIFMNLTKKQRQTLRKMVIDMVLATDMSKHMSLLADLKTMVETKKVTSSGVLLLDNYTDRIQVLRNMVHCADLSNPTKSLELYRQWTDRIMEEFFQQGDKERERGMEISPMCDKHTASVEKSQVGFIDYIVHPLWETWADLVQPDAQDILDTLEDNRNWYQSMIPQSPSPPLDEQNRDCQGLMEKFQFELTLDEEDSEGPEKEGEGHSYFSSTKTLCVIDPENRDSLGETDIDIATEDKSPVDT

| SMILES | IC50 (recombinant human PDE3A) [pM] | IC50 (recombinant human PDE4B) [pM] | other results |
| --- | --- | --- | --- |
| COc1cc2c(cc1OC)-c1c/c(=N\c3c(C)cc(C)cc3C)n(CCNC(N)=O)c(=O)n1CC2 [RPL554] |  |  | solubility [1]: poor; plasma clearance [2]: high |
| COc1cc2c(cc1OC)-c1cc(Oc3c(C(C)C)cccc3C(C)C)nc(=O)n1CC2 [RPL565] |  |  | solubility [1]: poor; plasma clearance [2]: high |
| CCOc1cc2c(cc1OC)-c1c/c(=N\c3c(C)cc(C)cc3C)n(CCNc3nc[nH]n3)c(=O)n1CCC2 [WX004] | 630 | 120 |  |
| CCOc1cc2c(cc1OC)-c1c/c(=N\c3c(C)cc(C)cc3C)n(CCNC(=O)c3cnn[nH]3)c(=O)n1CC2 [WX016] |  | 240 |  |
| CCOc1cc2c(cc1OC)-c1c/c(=N\c3c(C)cc(C)cc3C)n(CCNC(=O)c3ncc[nH]3)c(=O)n1CC2 [WX017] |  | 430 |  |
| CCOc1cc2c(cc1OC)-c1c/c(=N\c3c(C)cc(C)cc3C)n(CCNC(=O)c3ccn[nH]3)c(=O)n1CC2 [WX018] |  | 50 |  |
| CCOc1cc2c(cc1OC)-c1c/c(=N\c3c(C)cc(C)cc3C)n(CCNC(=O)c3ncco3)c(=O)n1CC2 [WX019] |  | 480 |  |
| CCOc1cc2c(cc1OC)-c1c/c(=N\c3c(C)cc(C)cc3C)n(CCNC(=O)c3ncon3)c(=O)n1CC2 [WX020] |  | 470 |  |
| CCOc1cc2c(cc1OC)-c1c/c(=N\c3c(C)cc(C)cc3C)n(CCNC(=O)c3cnc[nH]3)c(=O)n1CC2 [WX021] |  | 1100 |  |
| CCOc1cc2c(cc1OC)-c1c/c(=N\c3c(C)cc(C)cc3C)n(CCNC(=O)c3[nH]nnc3N)c(=O)n1CC2 [WX025] |  | 440 |  |
| CCOc1cc2c(cc1OC)-c1c/c(=N\c3c(C)cc(C)cc3C)n(CCNC(=O)c3[nH]nnc3OC)c(=O)n1CC2 [WX026] |  | 2500 |  |
| CCOc1cc2c(cc1OC)-c1c/c(=N\c3c(C)cc(C)cc3C)n(CCNC(=O)c3c(O)nnn3C)c(=O)n1CC2 [WX036] |  |  | Area under plasma concentration-time curve (0-inf) ([3]; intravenous injection 0.5 mg/kg): 0.21 µM·h; Area under plasma concentration-time curve (0-inf) ([3]; oral administration 3 mg/kg): 0.123 µM·h; Peak concentration ([3]; oral administration 3 mg/kg): 59.4 nM; Time to peak ([3]; oral administration 3 mg/kg): 0.6 h |
| CCOc1cc2c(cc1OC)-c1c/c(=N\c3c(C)cc(C)cc3C)n(CCNC(=O)c3[nH]ncc3OC)c(=O)n1CC2 [WX037] |  | 1700 |  |
| CCOc1cc2c(cc1OC)-c1c/c(=N\c3c(C)cc(C)cc3C)n(CCNC(=O)c3nnc[nH]3)c(=O)n1CCC2 [WX047] | 100 | 160 |  |
| CCOc1cc2c(cc1OC)-c1c/c(=N\c3c(C)cc(C)cc3C)n(CCNC(=O)c3cnn[nH]3)c(=O)n1CCC2 [WX048] | 30 | 270 |  |
| CCOc1cc2c(cc1OC)-c1c/c(=N\c3c(C)cc(C)cc3C)n(CCNC(=O)c3cnc[nH]3)c(=O)n1CCC2 [WX049] | 300 | 50 |  |
| CCOc1cc2c(cc1OC)-c1c/c(=N\c3c(C)cc(C)cc3C)n(CCNC(=O)c3ccn[nH]3)c(=O)n1CCC2 [WX050] | 1100 | 240 |  |
| CCOc1cc2c(cc1OC)-c1c/c(=N\c3c(C)cc(C)cc3C)n(CCNC(=O)c3ccn[nH]3)c(=O)n1CCO2 [WX052] | 500 | 180 |  |
| CCOc1cc2c(cc1OC)-c1c/c(=N\c3c(C)cc(C)cc3C)n(CCNC(=O)c3cnn[nH]3)c(=O)n1CCO2 [WX053] | 570 | 1900 |  |
| CCOc1cc2c(cc1OC)-c1c/c(=N\c3c(C)cc(C)cc3C)n(CCC(=O)Nc3cnn[nH]3)c(=O)n1CC2 [WX055] |  | 2100 |  |
| CCOc1cc2c(cc1OC)-c1c/c(=N\c3c(C)cc(C)cc3C)n(CCC(=O)Nc3ncco3)c(=O)n1CC2 [WX056] |  | 9100 |  |
| CCOc1cc2c(cc1OC)-c1c/c(=N\c3c(C)cc(C)cc3C)n(CCC(=O)Nc3cn[nH]c3)c(=O)n1CC2 [WX057] |  | 5400 |  |
